Values of other authors as cited in patent US8853212B2, “Substituted aminotetrahydrothiopyrans and derivatives thereof as dipeptidyl peptidase-IV inhibitors for the treatment of diabetes” (Merck Sharp & Dohme Corp, priority 2010, dated 2014).

What was measured:
cardiac allograft = details: rats; doubled from day 7
hematopoiesis = details: mouse, cyclophosphamide-induced neutropenia
DPP-4 = DPP-4 (Homo sapiens (Human), UniProt P27487)
Chain of DPP-4 (P27487 39-766, species assumed): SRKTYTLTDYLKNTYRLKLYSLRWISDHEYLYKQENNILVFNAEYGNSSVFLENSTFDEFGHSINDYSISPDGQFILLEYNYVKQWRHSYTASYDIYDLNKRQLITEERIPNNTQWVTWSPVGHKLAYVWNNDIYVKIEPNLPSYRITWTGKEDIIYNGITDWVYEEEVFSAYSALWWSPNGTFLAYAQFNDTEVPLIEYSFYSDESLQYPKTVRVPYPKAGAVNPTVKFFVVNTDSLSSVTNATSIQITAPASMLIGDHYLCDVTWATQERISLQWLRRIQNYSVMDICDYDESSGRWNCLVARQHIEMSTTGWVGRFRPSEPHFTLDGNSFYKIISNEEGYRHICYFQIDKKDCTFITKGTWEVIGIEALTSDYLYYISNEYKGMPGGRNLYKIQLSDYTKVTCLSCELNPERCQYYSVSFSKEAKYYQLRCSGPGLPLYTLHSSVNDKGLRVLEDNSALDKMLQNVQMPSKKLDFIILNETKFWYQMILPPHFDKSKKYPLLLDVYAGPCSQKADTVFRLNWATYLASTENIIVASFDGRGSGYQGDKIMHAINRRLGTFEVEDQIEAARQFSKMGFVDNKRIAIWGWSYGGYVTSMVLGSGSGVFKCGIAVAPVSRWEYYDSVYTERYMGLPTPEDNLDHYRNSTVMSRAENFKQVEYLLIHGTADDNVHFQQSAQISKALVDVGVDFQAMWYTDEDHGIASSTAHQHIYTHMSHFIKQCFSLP

For `CC(C)N1CCC(c2ccccc2)(c2ccccc2)CC1` [Prodipine, Pro-Pro-diphenyl-phosphonate], the cardiac allograft survival (cardiac allograft) is given as 14 day.

For `CC(C)[C@H](N)C(=O)N1CCC[C@H]1B(O)O` [Val-Bono-Pro], the hematopoiesis (hematopoiesis) is given as “stimulated hematopoiesis”.

For diprotin A, the “degradation of GRF in plasma to GRF[3-44]” value (DPP-4) is given as “prevented”.
